Consider four molecules from PMC7815716, “Mechanistic basis of breast cancer resistance protein inhibition by new indeno[1,2-b]indoles” (Scientific Reports, 2021).

Broadly, the IC50 is the midpoint of a concentration-inhibition curve. As usually defined, the inhibition is the change of the read-out against control, counted positive when it falls. Broadly, the melting point is the temperature of the solid-liquid transition.

For data set [1], the system named is HEK293 WT and HEK293-ABCG2 cells. The experiment in a line: Intrinsic cytotoxicity of compounds, MTT assay. The note with it: HEK293-ABCG2 vs HEK293 WT, 72 h, 0.1–100 µM. In kind it is cell-based, human. As for the experimental part:
(§1) Cell viability was evaluated with a 3-(4,5-dimethylthiazol-2-yl)-2,5-diphenyltetrazolium bromide (MTT) colorimetric assay. HEK293 WT and HEK293-ABCG2 cells were seeded into 96-well culture plates at a 1.5 × 10^4 cells/well density. After overnight incubation, the cells were treated with various concentrations of compounds (0–100 µM) for 72 h at 37 °C under 5% CO2. […] Sensitization experiments were also carried out on H460 and H460MX20 cells. For these experiments, H460 and H460MX20 cells were seeded into 96-well culture plates at 1.0 × 10^4 cells/well density. […] After the treatment, the culture medium was removed and 100 μL of a 0.5 mg.mL^−1 MTT solution was added. Cells were then incubated for 4 h at 37 °C under 5% CO2. The formazan crystals were dissolved with a solution of DMSO/ethanol (1:1) and the absorbance was measured at 570 nm using a Multiscan FC microplate reader (Thermo Scientific). The results were expressed as percentage of viable cells versus control cells (0.1% DMSO, v/v) taken as 100%.
On the technique in general: Tetrazolium dyes change colour on reduction, which living cells bring about.

For data set [2], the target named is T1, ABCG2 (Homo sapiens, UniProt Q9UNQ0).
T1 sequence (Q9UNQ0 1-655): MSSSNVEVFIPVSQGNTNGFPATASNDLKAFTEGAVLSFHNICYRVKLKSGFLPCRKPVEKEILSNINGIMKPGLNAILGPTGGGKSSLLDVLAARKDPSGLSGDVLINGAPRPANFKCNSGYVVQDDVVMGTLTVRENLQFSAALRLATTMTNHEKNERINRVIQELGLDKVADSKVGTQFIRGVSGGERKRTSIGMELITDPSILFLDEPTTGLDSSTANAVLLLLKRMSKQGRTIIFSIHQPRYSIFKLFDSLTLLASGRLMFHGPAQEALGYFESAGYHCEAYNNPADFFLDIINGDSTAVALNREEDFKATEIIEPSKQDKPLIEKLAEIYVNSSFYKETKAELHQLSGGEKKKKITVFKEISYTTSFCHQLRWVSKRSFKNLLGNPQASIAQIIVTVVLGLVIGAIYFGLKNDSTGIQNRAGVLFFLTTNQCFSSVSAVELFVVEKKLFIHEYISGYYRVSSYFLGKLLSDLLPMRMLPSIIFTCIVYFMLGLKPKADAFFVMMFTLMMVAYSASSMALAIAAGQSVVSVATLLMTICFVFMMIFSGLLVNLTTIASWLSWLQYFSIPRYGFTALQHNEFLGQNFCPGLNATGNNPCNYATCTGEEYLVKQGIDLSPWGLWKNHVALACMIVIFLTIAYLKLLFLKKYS
The experiment in a line: Inhibition of ABCG2-mediated mitoxantrone efflux (flow cytometry). Particulars: for inhibition at 30 min: human, probe mitoxantrone (10 µM), from IC50 fitted curves, HEK293-ABCG2, mitoxantrone, 100% = Ko143 0.5 µM, read-out: IMAX (%) ± SD, maximal inhibition percentage; for Class of inhibitor by IMAX (complete or partial): threshold at 80% on IMAX values. It is filed as cell-based. Also on record: expressed in transfected cells; host or cells: HEK293. As for the experimental part:
ABCG2 inhibition assays were carried out on HEK293 WT and HEK293-ABCG2 cells. Cells were seeded at the density of 1 × 10^5 cells/well in 24 well culture plates and incubated for 48 h at 37 °C under 5% CO2. Cells were treated with compounds and 10 μM of mitoxantrone for 30 min at 37 °C and 5% CO2. After incubation the cells were washed with PBS, trypsinized and resuspended in ice cold PBS. The intracellular drug fluorescence was monitored with a FACS Calibur cytometer (Becton Dickinson) using the FL4 channel, with at least 10,000 events collected. The maximal fluorescence (taken as 100%) was determined with the difference between the mean fluorescence of HEK-ABCG2 cells incubated with 0.5 μM Ko143 (ABCG2 reference inhibitor) or by using the HEK293 WT cell line as a control and cells without inhibitor (mitoxantrone alone). The percent of inhibition was determined as previously described. For bimodulation assays the cells were concomitantly treated with 10 μM of one or two combined inhibitors under similar conditions as described previously. For washing assays, cells were treated with 10 μM concentrations of compounds for 30 min. Then, the medium with the inhibitor was removed and the cells were washed with PBS and incubated only with culture medium for different periods of time (0.5 and 3 h). After incubation, cells were exposed to 5 µM mitoxantrone for 30 min, and then analyzed by flow cytometry. The percentage of transport inhibition was calculated by the following equation: %Inhibition=C-S/I-S×100 where “C” corresponds to the intracellular fluorescence of cells in the presence of the tested compounds and substrate (mitoxantrone to ABCG2, Rhodamine 123 to ABCB1 and calcein to ABCC1), “S” corresponds to the intracellular fluorescence of cells in the presence of substrate alone, and “I” corresponds to the intracellular fluorescence of cells in the presence of the substrate and reference inhibitor (Ko143 to ABCG2, GF120918 to ABCB1 and verapamil to ABCC1).
Background: In flow cytometry, cells or beads pass a laser one at a time.

The next data set concerns HEK293-ABCG2 cells. The experiment in a line: Sensitization of ABCG2-transfected cells to SN-38, MTT assay. In kind it is cell-based, human. Particulars: for Chemosensitization to SN-38: HEK293-ABCG2, 72 h co-treatment, IC50 value or 5 µM; for FR, fold reversal: vs HEK293 WT. As for the experimental part: as §1
Data set [3] deals with T1, ABCG2. The experiment in a line: Thermostabilization assay (ATPase activity after heating). It is filed as biochemical. The note with it: 10 µM, curves with or without ATP. As for the experimental part:
The thermal stability assay was performed according to the published. Total membrane prepared from High Five insect cells overexpressing the ABCG2 at 3 µg protein/tube concentration were incubated with assay buffer composed by 50 mM Tris–HCl, pH 6.8, 150 mM N-methyl-D-glucamine (NMDG)-Cl, 5 mM sodium azide, 1 mM ouabain and 2 mM DTT in the presence or absence of 0.3 mM orthovanadate at final volume of 50 µL. To evaluate the effect of those inhibitors over thermal stability, each sample was prepared with 12.5 mM MgCl2 or 6.25 mM ATP and incubated with a temperature range from 37 to 71 °C for 10 min using a thermocycler C1000 Touch (Bio-Rad, Hercules, CA). After incubation, 10 µL of 25 mM ATP or 50 mM MgCl2 (5 and 10 mM final concentration, respectively) was added and incubated at 37 °C/20 min to allow ATP hydrolysis. The reaction was stopped with the addition of 50 µL of Pi solution containing 1% ammonium molibdate, 2.5 N H2SO4 and 0.014% potassium-antimony tartrate. To evaluate the absorbance, the samples were transferred to a 96 well plate (50 µL/well), added 150 µL of 0.33% sodium ascorbate solution. The absorbance was measured after 15 min incubation at room temperature using the microplate reader Spectramax iD3 (Molecular Devices, San Jose, CA). The sensitive activity to vanadate (Vi) was calculated as the difference between the activity in the absence of Vi minus the activity in the presence of Vi to each temperature.

[4] abbreviates: HEK293-ABCG2, SN-38 + inhibitor at 5 µM.
Setting [5] is: HEK293-ABCG2, SN-38 + inhibitor at its IC50 value.

Read-outs that look alike come from different tables or passages of the source.

In turn, `COc1cc2c(cc1OC)-c1c(c3c(n1CCc1ccccc1)CC(C)CC3=O)C2=O` (stereo not shown) [5e, 2,3-Dimethoxy-7-methyl-5-phenethyl-5,6,7,8-tetrahydroindeno[1,2-b]indole-9,10-dione] came in with a melting point of 235 °C. In addition, in data set [1], the “Intrinsic cytotoxicity in ABCG2-transfected versus control cells (cross-resistance)” value is recorded as “no apparent cross-resistance”. In addition, on ABCG2 [2] (HEK293-ABCG2 cells, mitoxantrone 10 µM, 30 min, read-out: IC50 (µM) ± SD, inhibition of ABCG2-mediated mitoxantrone efflux), the half-maximal inhibitory concentration (IC50) came out at 0.15 ± 0.08 µM. On ABCG2 [2] (HEK293-ABCG2 cells), the inhibition at 30 min is 36.9 ± 1.16%. Besides, the “Class of inhibitor by IMAX (complete or partial)” value on ABCG2 [2] is on record as “partial (partial (IMAX ≤ 80% of ABCG2 inhibition))”. Also, the “Chemosensitization to SN-38” value in the data set with HEK293-ABCG2 cells is “efficiently chemosensitize”. Besides, the “FR, fold reversal” value in the data set with HEK293-ABCG2 cells (setting [4]) was 3.08. For the same molecule, in the data set with HEK293-ABCG2 cells (setting [5]), the “FR, fold reversal” value is reported as 9.51. The “Thermostabilization effect” value at ABCG2 [3] is “moderate effect”.
On to `COc1ccccc1CCn1c2c(c3c(O)cc(C)cc31)C(=O)c1ccccc1-2` [6a, 9-Hydroxy-7-methyl-5-(2-methoxyphenethyl)-5H-indeno[1,2-b]indol-10(5H)-one], for which the “Intrinsic cytotoxicity in ABCG2-transfected versus control cells (cross-resistance)” value in data set [1] is on record as “no apparent cross-resistance”. Also, on ABCG2 [2], the half-inhibitory concentration (IC50) was 0.21 ± 0.03 µM and the “Class of inhibitor by IMAX (complete or partial)” value is “partial (partial (IMAX ≤ 80% of ABCG2 inhibition))”. The inhibition at 30 min on ABCG2 [2] (HEK293-ABCG2 cells) was determined as 62.6 ± 2.3%. Further, the “Chemosensitization to SN-38” value in the data set on HEK293-ABCG2 cells was “efficiently chemosensitize”. For the same molecule, the “FR, fold reversal” value in the data set with HEK293-ABCG2 cells (setting [4]) is recorded as 0.47. Further, the “FR, fold reversal” value in the data set on HEK293-ABCG2 cells (setting [5]) was 0.82. Besides, the “Thermostabilization effect” value at ABCG2 [3] is recorded as “moderate effect”.
On to `COc1ccc2[nH]cc(CCn3c4c(c5c(O)cccc53)C(=O)c3ccccc3-4)c2c1` [6c, 9-Hydroxy-5-(2-(5-methoxy-1H-indol-3-yl)ethyl)indeno[1,2-b]indol-10(5H)-one], for which the melting point worked out at 95 °C. Further, in data set [1], the “Intrinsic cytotoxicity in ABCG2-transfected versus control cells (cross-resistance)” value is given as “mild collateral sensitivity (CS) effect”. Further, the IC50 on ABCG2 [2] was 0.48 ± 0.1 µM. Also, the inhibition at 30 min on ABCG2 [2] (HEK293-ABCG2 cells) was found to be 90.5 ± 8.07%. Moreover, in the data set with HEK293-ABCG2 cells (setting [4]), the “FR, fold reversal” value amounted to 0.37. Besides, the “FR, fold reversal” value in the data set with HEK293-ABCG2 cells (setting [5]) is reported as 1.13. Further, the “Thermostabilization effect” value on ABCG2 [3] is “most pronounced effect”.
Take `COc1cccc(CCn2c3c(c4c(O)cccc42)C(=O)c2ccc(O)cc2-3)c1` [6d, 3,9-Dihydroxy-5-(3-methoxyphenethyl)indeno[1,2-b]indol-10(5H)-one]: the melting point amounted to 198 °C. Moreover, the “Intrinsic cytotoxicity in ABCG2-transfected versus control cells (cross-resistance)” value in data set [1] is on record as “mild collateral sensitivity (CS) effect”. Further, on ABCG2 [2], half-maximal inhibition (IC50) required 0.19 ± 0.04 µM. Moreover, the inhibition at 30 min on ABCG2 [2] (HEK293-ABCG2 cells) came out at 84.8 ± 2.51%. Besides, in the data set with HEK293-ABCG2 cells (setting [4]), the “FR, fold reversal” value worked out at 0.64. In the data set with HEK293-ABCG2 cells (setting [5]), the “FR, fold reversal” value amounted to 12.48. Besides, on ABCG2 [3], the “Thermostabilization effect” value was “most pronounced effect”.
